Measured values published in ChEMBL document CHEMBL1201862, “PubChem BioAssay data set” (2004).
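Five concentrations, 48 hours, 96-well plates. Abbreviation: GI50, concentration required for 50% inhibition of growth.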 Active and inactive are the calls of the source. Cut-off read from the data, not from the text of the source: active = GI50 up to about 1.1 µM and inactive = higher.

Tests used:
Assay in all cases: DTP human tumour cell line panel, 48 h
HCT-15 = test system: HCT-15
A549 = test system: A549
K562 = test system: K562
IGROV-1 = test system: IGROV-1
SF-295 = test system: SF-295
NCI-H522 = test system: NCI-H522
OVCAR-4 = test system: OVCAR-4
OVCAR-8 = test system: OVCAR-8
EKVX = test system: EKVX
KM12 = test system: KM12
SF-268 = test system: SF-268
SW-620 = test system: SW-620
COLO 205 = test system: COLO 205
HOP-62 = test system: HOP-62
UACC-257 = test system: UACC-257
SN12C = test system: SN12C
SR = test system: SR

## O=C1CCC2(c3ccccc3)Nc3ccccc3N12 (centres undefined)
HCT-15
  GI50: > 100 µM
A549
  GI50: > 100 µM (inactive)
K562
  GI50: > 100 µM (inactive)
IGROV-1
  GI50: > 100 µM (inactive)
SF-295
  GI50: > 100 µM (inactive)
NCI-H522
  GI50: > 100 µM (inactive)
OVCAR-4
  GI50: > 100 µM (inactive)
OVCAR-8
  GI50: > 100 µM (inactive)
EKVX
  GI50: > 100 µM (inactive)
KM12
  GI50: > 100 µM (inactive)
SF-268
  GI50: > 100 µM (inactive)
SW-620
  GI50: > 100 µM (inactive)
COLO 205
  GI50: > 100 µM (inactive)
HOP-62
  GI50: > 100 µM (inactive)
UACC-257
  GI50: > 100 µM (inactive)
SN12C
  GI50: > 100 µM (inactive)

## N#Cc1ccccc1Nc1ccccc1S
A549
  GI50: 30.7 µM (inactive)
K562
  GI50: 26 µM (inactive)
IGROV-1
  GI50: 26.9 µM (inactive)
SF-295
  GI50: 23.9 µM (inactive)
OVCAR-4
  GI50: 37.9 µM (inactive)
OVCAR-8
  GI50: 31.6 µM (inactive)
EKVX
  GI50: 57.7 µM (inactive)
KM12
  GI50: 38.2 µM (inactive)
SF-268
  GI50: 31.3 µM (inactive)
SW-620
  GI50: 22.1 µM (inactive)
COLO 205
  GI50: > 100 µM (inactive)
HOP-62
  GI50: 46.7 µM (inactive)
UACC-257
  GI50: 57.3 µM (inactive)
SN12C
  GI50: 31 µM (inactive)
SR
  GI50: 19.3 µM (inactive)

## CCN(CC)c1c(C(=O)/C=C/c2ccccc2)c(-c2ccccc2)nn(C)c1=O
A549
  GI50: 5.37 µM (inactive)
K562
  GI50: 2.52 µM (inactive)
IGROV-1
  GI50: 9.79 µM (inactive)
SF-295
  GI50: 6.01 µM (inactive)
NCI-H522
  GI50: 6 µM (inactive)
OVCAR-4
  GI50: 4.78 µM (inactive)
OVCAR-8
  GI50: 5.37 µM (inactive)
EKVX
  GI50: 8.3 µM (inactive)
KM12
  GI50: 4.18 µM (inactive)
SF-268
  GI50: 5.98 µM (inactive)
COLO 205
  GI50: 5.81 µM (inactive)
HOP-62
  GI50: > 100 µM (inactive)
UACC-257
  GI50: 8.17 µM (inactive)
SN12C
  GI50: 4.68 µM (inactive)
SR
  GI50: 3.21 µM (inactive)

## CC(C)c1cccc(C(C)C)c1NC(=O)/C(Cc1nc2ccc(Cl)cc2nc1O)=N\NC(=O)C[N+](C)(C)C
A549
  GI50: > 100 µM (inactive)
K562
  GI50: > 100 µM (inactive)
IGROV-1
  GI50: > 100 µM (inactive)
SF-295
  GI50: > 100 µM (inactive)
NCI-H522
  GI50: > 100 µM (inactive)
OVCAR-4
  GI50: > 100 µM (inactive)
OVCAR-8
  GI50: > 100 µM (inactive)
EKVX
  GI50: 4.22 µM (inactive)
KM12
  GI50: > 100 µM (inactive)
SF-268
  GI50: > 100 µM (inactive)
SW-620
  GI50: > 100 µM (inactive)
COLO 205
  GI50: > 100 µM (inactive)
HOP-62
  GI50: > 100 µM (inactive)
UACC-257
  GI50: > 100 µM (inactive)
SN12C
  GI50: > 100 µM (inactive)
SR
  GI50: > 100 µM (inactive)

## O=C1NC2C(O)CCCCC2C12CCCCC2 (centres undefined)
HCT-15
  GI50: > 100 µM
A549
  GI50: > 100 µM (inactive)
K562
  GI50: > 100 µM (inactive)
IGROV-1
  GI50: > 100 µM (inactive)
SF-295
  GI50: > 100 µM (inactive)
NCI-H522
  GI50: > 100 µM (inactive)
OVCAR-4
  GI50: > 100 µM (inactive)
OVCAR-8
  GI50: > 100 µM (inactive)
EKVX
  GI50: > 100 µM (inactive)
KM12
  GI50: > 100 µM (inactive)
SF-268
  GI50: > 100 µM (inactive)
SW-620
  GI50: > 100 µM (inactive)
COLO 205
  GI50: > 100 µM (inactive)
HOP-62
  GI50: > 100 µM (inactive)
UACC-257
  GI50: > 100 µM (inactive)
SN12C
  GI50: > 100 µM (inactive)

## CC(N)C(=O)OCN1C(=O)C2C3C=CC(C2C1=O)C1C2C(=O)N(COC(=O)C(C)N)C(=O)C2C31 (centres undefined)
HCT-15
  GI50: 19.9 µM
A549
  GI50: 32.9 µM (inactive)
K562
  GI50: 24.8 µM (inactive)
IGROV-1
  GI50: 33.8 µM (inactive)
SF-295
  GI50: > 100 µM (inactive)
OVCAR-4
  GI50: 20.8 µM (inactive)
OVCAR-8
  GI50: 22.1 µM (inactive)
EKVX
  GI50: > 100 µM (inactive)
KM12
  GI50: 20.3 µM (inactive)
SF-268
  GI50: 21.3 µM (inactive)
SW-620
  GI50: 24.4 µM (inactive)
COLO 205
  GI50: 19.4 µM (inactive)
HOP-62
  GI50: > 100 µM (inactive)
UACC-257
  GI50: 31.4 µM (inactive)
SN12C
  GI50: 25.6 µM (inactive)
SR
  GI50: 5.57 µM (inactive)

## COC(=O)C(=Cc1cc(OC)ccc1OC)C(=O)OC
HCT-15
  GI50: 25.2 µM
A549
  GI50: 31 µM (inactive)
K562
  GI50: 18 µM (inactive)
IGROV-1
  GI50: 25.5 µM (inactive)
SF-295
  GI50: 28.2 µM (inactive)
NCI-H522
  GI50: 15.1 µM (inactive)
OVCAR-4
  GI50: 20.3 µM (inactive)
OVCAR-8
  GI50: 30 µM (inactive)
EKVX
  GI50: 33.7 µM (inactive)
KM12
  GI50: 20.6 µM (inactive)
SF-268
  GI50: 34.2 µM (inactive)
SW-620
  GI50: 23.7 µM (inactive)
COLO 205
  GI50: 18.2 µM (inactive)
HOP-62
  GI50: 27.5 µM (inactive)
UACC-257
  GI50: 14.1 µM (inactive)
SN12C
  GI50: 24.9 µM (inactive)

## CC(C)(Oc1ccc(C(=O)c2ccc(Cl)cc2)cc1Cl)C(=O)N1CCN(c2ccccc2)CC1
HCT-15
  GI50: > 100 µM
A549
  GI50: 58.5 µM (inactive)
K562
  GI50: 34.4 µM (inactive)
IGROV-1
  GI50: > 100 µM (inactive)
SF-295
  GI50: > 100 µM (inactive)
NCI-H522
  GI50: 59 µM (inactive)
OVCAR-8
  GI50: > 100 µM (inactive)
EKVX
  GI50: > 100 µM (inactive)
KM12
  GI50: > 100 µM (inactive)
SF-268
  GI50: > 100 µM (inactive)
SW-620
  GI50: > 100 µM (inactive)
HOP-62
  GI50: > 100 µM (inactive)
UACC-257
  GI50: 43.7 µM (inactive)
SR
  GI50: 66.1 µM (inactive)

## COC(=O)/N=C(\NC(=O)OC)Nc1ccc(Oc2ccccc2)cc1NC=O
A549
  GI50: 0.597 µM (active)
K562
  GI50: 0.265 µM (active)
IGROV-1
  GI50: 1.62 µM (inactive)
SF-295
  GI50: 0.439 µM (active)
NCI-H522
  GI50: 0.253 µM (active)
OVCAR-4
  GI50: 0.891 µM (active)
OVCAR-8
  GI50: 0.593 µM (active)
EKVX
  GI50: 89.5 µM (inactive)
KM12
  GI50: 0.466 µM (active)
SF-268
  GI50: 0.673 µM (active)
SW-620
  GI50: 0.388 µM (active)
COLO 205
  GI50: 0.2 µM (active)
HOP-62
  GI50: 0.912 µM (active)
UACC-257
  GI50: 2.48 µM (inactive)
SN12C
  GI50: 1.58 µM (inactive)
